Test [1] relates to ESR1 transcription (luciferase signal in MVLN cells). Kind of test: Repression of ESR1 transcription, luciferase reporter in MVLN cells. It counts as cell-based. The conditions noted are these: Homo sapiens, MVLN, inhibition of luciferase signal in MVLN cells; arithmetic mean. In outline:
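Luminescence from an ER-driven Vitellogenin A2 element–luciferase reporter was measured after 24 h of treatment of MVLN cells, in duplicate wells. Alamar Blue (2 h, 530/590 nm) served as a cell-density control.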
For orientation: A reporter such as luciferase makes a cellular process visible.

In another test the test system is MDA-MB-436 cells. The test can be described thus: Proliferation assay MDA-MB-436, negative control cell line (Alamar Blue, 144 h). It counts as cell-based. As to conditions: Homo sapiens, MDA-MB-436, 144 h, arithmetic mean. The source says: Proliferation Assays for Compound Characterization
For compound characterization cell survival assays were routinely run in two cell lines. ZR-75-1 is a breast carcinoma cell line containing a focal KAT6A amplification and high KAT6A protein expression. Proliferation of this cell line is inhibited upon treatment with KAT6A inhibitors. As a negative control cell line MDA-MB-436 were used. These cells carry a […] deletion of the KAT6A gene, have a low KAT6A protein expression and are not growth inhibited upon treatment with KAT6A inhibitors.
For measurements cell lines were plated at the below indicated concentration per […] in 96-well plates in a humidified incubator at 37° C. and 5% CO2.
MDA-MB-436 (CLS, 300278; breast adenocarcinoma); 3000 cells per well; culture medium: DMEM/Ham's F12 (Biochrom #FG 4815) medium containing 2.5% FBS (Biochrom #S0615).
24 hours later, cells were treated with compounds (stock solution, 10 mM in DMSO) using the HP D300 Digital Dispenser in a concentration range of 2.0×10E-5 M to 2.0×10E-9 M in a single-dot curve with 9 dilutions and a DMSO concentration of 0.2%. Each sample was prepared as triplicate and rim wells were excluded. Plates were incubated at 37° C. and 5% CO2 for 144 h. Cell viability was measured by adding 10 μL of Alamar Blue Reagent (Invitrogen #DAL 1100) and plates were incubated for 2 h at 37° C. and 5% CO2. Fluorescence was measured at 590 nm wavelength with a Tecan Spark or Victor X3 MTP-Reader (PerkinElmer).

Another test deals with ZR-75-1 cells. The test can be described thus: Proliferation assay ZR-75-1 (Alamar Blue, 144 h). It counts as cell-based. As to conditions: Homo sapiens, ZR-75-1, 144 h, arithmetic mean, read-out: ZR75-1 proliferation assay, EC50 [M] (arithmetic mean). In outline:
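Alamar Blue fluorescence (590 nm, 2 h reagent step) measured viability after 144 h compound exposure at 37 °C, 5% CO2. Compounds spanned 2.0×10E-5 to 2.0×10E-9 M in 9 dilutions at 0.2% DMSO, in triplicate, added 24 h after plating 3000 cells/well in RPMI 1640 plus 2.5% FBS.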
For orientation: Alamar Blue is a resazurin reagent that responds to reducing activity.

For test [2], the target named is Recombinant human His-tagged Kat6a protein (amino acids 194-810) (Homo sapiens (Human), UniProt Q92794). Kind of test: Kat6a activity assay (TR-FRET, acetylation of biotinylated Histone-H4-derived peptide). It counts as biochemical. As to conditions: 60 mins at 22° C., read-out: KAT6A-DPF/HAT domain IC50 [mol/l] (arithmetic mean). The essentials: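 TR-FRET read-out of H4 K8 acetylation, using anti-acetyl-K8 antibody and streptavidin acceptor, after anacardic acid stop; IC50 from four-parameter regression normalized to DMSO. Reaction: recombinant human Kat6a aa 194-810 (insect-cell derived), 220 nM H4 1-24 peptide, 600 nM acetyl-CoA, pH 8, 22 °C, 60 min, compounds 0.01-20 μM.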
Recombinant human His-tagged Kat6a protein (amino acids 194-810), sequence (Q92794 194-810): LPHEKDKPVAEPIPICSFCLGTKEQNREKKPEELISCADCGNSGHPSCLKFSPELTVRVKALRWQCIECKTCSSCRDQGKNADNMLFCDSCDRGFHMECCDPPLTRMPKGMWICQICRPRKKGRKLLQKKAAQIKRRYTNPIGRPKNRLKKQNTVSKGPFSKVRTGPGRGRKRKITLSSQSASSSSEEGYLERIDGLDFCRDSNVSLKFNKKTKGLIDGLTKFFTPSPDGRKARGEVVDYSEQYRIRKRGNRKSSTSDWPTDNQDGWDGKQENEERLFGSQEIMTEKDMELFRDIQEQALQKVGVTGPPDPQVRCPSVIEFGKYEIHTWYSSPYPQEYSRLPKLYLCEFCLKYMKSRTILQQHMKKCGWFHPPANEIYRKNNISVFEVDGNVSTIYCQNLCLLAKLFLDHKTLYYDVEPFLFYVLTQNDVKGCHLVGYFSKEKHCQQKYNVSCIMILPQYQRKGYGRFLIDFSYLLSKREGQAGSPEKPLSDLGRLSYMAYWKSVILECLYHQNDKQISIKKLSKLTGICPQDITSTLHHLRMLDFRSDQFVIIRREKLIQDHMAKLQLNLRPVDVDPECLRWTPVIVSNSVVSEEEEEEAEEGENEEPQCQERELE
On the technique in general: Time-resolved FRET reads energy transfer from a long-lived donor to a nearby acceptor.

Bounds are passed on as bounds.

For the compound `COCCN(C)c1ccc2cc(C(=O)NS(=O)(=O)c3cccc4ccc(C)nc34)oc2c1` [Example 205, 6-[(2-Methoxyethyl)(methyl)amino]-N-(2-methylquinoline-8-sulfonyl)-1-benzofuran-2-carboxamide], the IC50 worked out at 2340 nM in test [1] and 485 nM in test [2]. The EC50 in the test with MDA-MB-436 cells was determined as 7610 nM; in the test on ZR-75-1 cells, 2.17e-06 M.
Take `CCCNc1ncc(Br)cc1S(=O)(=O)NC(=O)c1cc2ccc(N(C)C)cc2o1` [Example 150, N-[5-bromo-2-(propylamino)pyridine-3-sulfonyl]-6-(dimethylamino)-1-benzofuran-2-carboxamide]: the IC50 turned out to be 8290 nM in test [1] and 429 nM in test [2]. Also, the EC50 in the test with MDA-MB-436 cells was 10200 nM; with ZR-75-1 cells it was > 2e-05 M.
The like results for `CN(C)c1ccc2cc(C(=O)NS(=O)(=O)c3ccc(Cl)cc3Cl)oc2c1` [Example 27, N-(2,4-Dichlorobenzene-1-sulfonyl)-6-(dimethylamino)-1-benzofuran-2-carboxamide] were, in that order, 1750 nM, 134 nM, > 20000 nM and 1.73e-06 M.
Consider `CC(Oc1ccccc1S(=O)(=O)NC(=O)c1cc2ccc(N(C)C)cc2o1)C(F)(F)F` (racemic) [Example 135, 6-(Dimethylamino)-N-(2-[-1,1,1-trifluoropropan-2-yl)oxy]benzene-1-sulfonyl)-1-benzofuran-2-carboxamide (rac)], for which the figures for the IC50 in test [1] and in test [2] were 68.6 nM and 57.9 nM, respectively. In addition, the EC50 in the test on MDA-MB-436 cells is > 20000 nM; in the test on ZR-75-1 cells, 1.46e-07 M.
In the case of `CN(C)c1ccc2cc(C(=O)NS(=O)(=O)c3ccccc3-c3ccccc3)oc2c1F` [Example 192, N-([1,1′-biphenyl]-2-ylsulfonyl)-6-(dimethylamino)-7-fluorobenzofuran-2-carboxamide], the results for the IC50 in test [1] and in test [2] were 16400 nM and 2980 nM, respectively. Besides, the EC50 in the test on MDA-MB-436 cells is > 20000 nM; in the test on ZR-75-1 cells, > 2e-05 M.
With `CN(C)c1ccc2cc(C(=O)NS(=O)(=O)c3ccc(Br)cc3OC(F)(F)F)oc2c1` [Example 118, N-[4-Bromo-2-(trifluoromethoxy)benzene-1-sulfonyl]-6-(dimethylamino)-1-benzofuran-2-carboxamide], the IC50 in test [1] amounted to 555 nM; in test [2], 52.4 nM. The EC50 in the test on MDA-MB-436 cells was > 20000 nM; with ZR-75-1 cells, 9.57e-07 M.
For `CCOc1ccccc1S(=O)(=O)NC(=O)c1cc2cc(Cl)c(N(C)C)cc2o1` [Example 188, 5-Chloro-6-(dimethylamino)-N-((2-ethoxyphenyl)sulfonyl)benzofuran-2-carboxamide], the figures for the IC50 in test [1] and in test [2] were > 20000 nM and 10300 nM, respectively. Moreover, the values for the EC50 with MDA-MB-436 cells and in the test on ZR-75-1 cells were > 20000 nM and > 2e-05 M, respectively.
Regarding `Cc1ccc2cccc(S(=O)(=O)NC(=O)c3cc4ccc(N(C)C)c(F)c4o3)c2n1` [Example 190, 6-(Dimethylamino)-7-fluoro-N-((2-methylquinolin-8-yl)sulfonyl)benzofuran-2-carboxamide], the IC50 in test [1] was 1930 nM; in test [2], 1400 nM. For the same compound, the EC50 in the test with MDA-MB-436 cells is 10400 nM; in the test with ZR-75-1 cells, 3.3e-06 M.
For `CC(C)Nc1ncc(Br)cc1S(=O)(=O)NC(=O)c1cc2ccc(N(C)C)cc2o1` [Example 145, N-{5-Bromo-2-[(propan-2-yl)amino]pyridine-3-sulfonyl}-6-(dimethylamino)-1-benzofuran-2-carboxamide], the IC50 in test [1] turned out to be 6800 nM; in test [2], 438 nM. Besides, the EC50 was > 20000 nM in the test on MDA-MB-436 cells and 7.2e-06 M with ZR-75-1 cells.
As for `CCNc1ccc2cc(C(=O)NS(=O)(=O)c3ccccc3-c3ccccc3)oc2c1` [Example 211, N-([1,1′-biphenyl]-2-sulfonyl)-6-(ethylamino)-1-benzofuran-2-carboxamide], the IC50 in test [1] worked out at 4840 nM; in test [2] it was 350 nM. Moreover, the EC50 in the test on MDA-MB-436 cells is > 20000 nM; in the test with ZR-75-1 cells, 1.21e-06 M.
The like results for `CN(C)c1ccc2cc(C(=O)NS(=O)(=O)c3ccc(N)c4cccnc34)oc2c1` [Example 166, N-(5-Aminoquinoline-8-sulfonyl)-6-(dimethylamino)-1-benzofuran-2-carboxamide] were, in that order, 150 nM, 56.4 nM, 6310 nM and 1.5e-07 M.
In the case of `CCOc1ccc(NC(C)=O)cc1S(=O)(=O)NC(=O)c1cc2ccc(N(C)C)cc2o1` [Example 128, N-(5-Acetamido-2-ethoxybenzene-1-sulfonyl)-6-(dimethylamino)-1-benzofuran-2-carboxamide], the IC50 in test [1] came out at 7800 nM; in test [2], 351 nM. In addition, the results for the EC50 with MDA-MB-436 cells and in the test on ZR-75-1 cells were > 20000 nM and 1.49e-06 M, respectively.
`Cc1ccc2cccc(S(=O)(=O)NC(=O)c3cc4cc(Cl)c(N(C)C)cc4o3)c2n1` [Example 187, 5-Chloro-6-(dimethylamino)-N-((2-methylquinolin-8-yl)sulfonyl)benzofuran-2-carboxamide]: the IC50 in test [1] is > 20000 nM; in test [2] it was 6640 nM. For the same compound, the EC50 in the test on MDA-MB-436 cells was > 20000 nM; with ZR-75-1 cells it was > 2e-05 M.
`CN(C)c1ccc2cc(C(=O)NS(=O)(=O)c3cc(Br)cnc3NC3CC3)oc2c1` [Example 146, N-[5-Bromo-2-(cyclopropylamino)pyridine-3-sulfonyl]-6-(dimethylamino)-1-benzofuran-2-carboxamide]: the IC50 in test [1] was 5160 nM; in test [2], 266 nM. The values for the EC50 in the test on MDA-MB-436 cells and in the test on ZR-75-1 cells were > 20000 nM and 3.73e-06 M, respectively.
For the compound `CCOc1c(Cl)cccc1S(=O)(=O)NC(=O)c1cc2ccc(N(C)C)cc2o1` [Example 122, N-(3-Chloro-2-ethoxybenzene-1-sulfonyl)-6-(dimethylamino)-1-benzofuran-2-carboxamide], the IC50 worked out at 453 nM in test [1] and 252 nM in test [2]. Moreover, the EC50 is > 20000 nM with MDA-MB-436 cells and 9.44e-07 M in the test with ZR-75-1 cells.
The like results for `Cc1ccc2cccc(S(=O)(=O)NC(=O)c3cc4cc(F)c(N(C)C)cc4o3)c2n1` [Example 197, 6-(Dimethylamino)-5-fluoro-N-((2-methylquinolin-8-yl)sulfonyl)benzofuran-2-carboxamide] were, in that order, 1270 nM, 894 nM, > 20000 nM and 2.84e-06 M.
`COc1cccc(S(=O)(=O)N(C)C)c1S(=O)(=O)NC(=O)c1cc2ccc(N(C)C)cc2o1` [Example 141, 6-(Dimethylamino)-N-[2-(dimethylsulfamoyl)-6-methoxybenzene-1-sulfonyl]-1-benzofuran-2-carboxamide]: the IC50 turned out to be 1760 nM in test [1] and 317 nM in test [2]. Also, the EC50 was > 20000 nM in the test on MDA-MB-436 cells and 1.92e-06 M in the test on ZR-75-1 cells.
In the case of `Cc1ccc2cccc(S(=O)(=O)NC(=O)c3cc4cc(Br)c(N(C)C)cc4o3)c2n1` [Example 216, 5-Bromo-6-(dimethylamino)-N-(2-methylquinoline-8-sulfonyl)-1-benzofuran-2-carboxamide], the figures for the IC50 in test [1] and in test [2] were > 20000 nM and 2050 nM, respectively. The EC50 in the test with MDA-MB-436 cells is > 20000 nM; in the test on ZR-75-1 cells it was > 2e-05 M.
Consider `CCOc1ccccc1S(=O)(=O)NC(=O)c1cc2cc(C#N)c(N(C)C)cc2o1` [Example 204, 5-Cyano-6-(dimethylamino)-N-(2-ethoxybenzene-1-sulfonyl)-1-benzofuran-2-carboxamide], for which the IC50 in test [1] came to 5800 nM; in test [2], 2590 nM. The EC50 was > 20000 nM in the test on MDA-MB-436 cells and 6.4e-06 M in the test on ZR-75-1 cells.
On to `CN(C)c1cc(C(F)(F)F)c2cc(C(=O)NS(=O)(=O)c3ccccc3)oc2c1` [Example 194, 6-(Dimethylamino)-N-(phenylsulfonyl)-4-(trifluoromethyl)benzofuran-2-carboxamide], for which the IC50 in test [1] is 4090 nM; in test [2], 44.9 nM. Moreover, the EC50 is > 20000 nM in the test on MDA-MB-436 cells and 1.12e-06 M in the test with ZR-75-1 cells.

The record behind these values is US12357603B2, “Acyl sulfonamides for treating cancer” (Bayer Aktiengesellschaft, priority 2019, dated 2025).
